Source: PubChem BioAssay (NCI)
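Step 1: Grow cells in 96-well plates. Step 2: Expose to compound for 48 hours at 5 concentrations. Step 3: Interpolate endpoints linearly; if unreached, use highest concentration. The concentration for 50% growth inhibition is given as GI50. TGI: total growth inhibition.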

Columns and labels:
Assay in all cases: DTP human tumour cell line panel, 48 h
[1] = tested on: A498 renal
[2] = tested on: CAKI-1 renal
[3] = tested on: CCRF-CEM leukemia
[4] = tested on: COLO 205 colon
[5] = tested on: DU-145 prostate
[6] = tested on: HCC-2998 colon
[7] = tested on: HCT-15 colon
[8] = tested on: HL-60(TB) leukemia
[9] = tested on: HOP-92 NSCLC
[10] = tested on: HT29 colon
[11] = tested on: KM12 colon
[12] = tested on: MDA-MB-435
[13] = tested on: NCI-H226 lung
[14] = tested on: NCI-H23 lung
[15] = tested on: NCI-H460 lung
[16] = tested on: NCI-H522 lung
[17] = tested on: NCI/ADR-RES ovarian
[18] = tested on: OVCAR-3 ovarian
[19] = tested on: OVCAR-4 ovarian
[20] = tested on: RPMI-8226 leukemia
[21] = tested on: SK-MEL-2 melanoma
[22] = tested on: SK-MEL-5 melanoma
[23] = tested on: SK-OV-3 ovarian
[24] = tested on: SW-620 colon
[25] = tested on: T-47D breast
[26] = tested on: TK-10 renal
[27] = tested on: U251 CNS

For `COc1cc2c3c(n(C4CCNCC4)c(=O)c2cc1OC)-c1cc2c(cc1C3=O)OCO2`, the GI50 [1] was 0.619 µM, the TGI [1] was 3.32 µM and the GI50 [2] was 0.295 µM. It also gave a TGI [2] of 1.6 µM, a GI50 [3] of 0.287 µM and a TGI [3] of 2.25 µM. The GI50 [4] was 0.986 µM, the TGI [4] was 2.33 µM and the GI50 [5] was 0.423 µM. It also gave a TGI [5] of 1.55 µM, a GI50 [6] of 1.34 µM and a TGI [6] of 2.71 µM. It also gave a GI50 [7] of 0.396 µM, a TGI [7] of 1.77 µM and a GI50 [8] of 0.364 µM. The TGI [8] was 1.49 µM, the GI50 [9] was 2.45 µM and the TGI [9] was 28.3 µM. The GI50 [10] was 0.264 µM, the TGI [10] was 2.33 µM and the GI50 [11] was 1.11 µM. For the same molecule, the TGI [11] was 2.53 µM, the GI50 [12] was 1.19 µM and the TGI [12] was 2.6 µM. The GI50 [13] was 0.635 µM, the TGI [13] was 2.94 µM and the GI50 [14] was 0.538 µM. It also gave a TGI [14] of 2.39 µM, a GI50 [15] of 0.119 µM and a TGI [15] of 0.276 µM. It also gave a GI50 [16] of 0.296 µM, a TGI [16] of 2.99 µM and a GI50 [17] of 0.823 µM. It also gave a TGI [17] of 4 µM, a GI50 [18] of 1.2 µM and a TGI [18] of 2.6 µM. The GI50 [19] was 1.42 µM, the TGI [19] was 2.95 µM and the GI50 [20] was 0.773 µM. The TGI [20] was 3.68 µM, the GI50 [21] was 20.1 µM and the TGI [21] was > 100 µM. It also gave a GI50 [22] of 0.322 µM, a TGI [22] of 1.46 µM and a GI50 [23] of 0.402 µM. It also gave a TGI [23] of 1.75 µM, a GI50 [24] of 0.225 µM and a TGI [24] of 1.95 µM. The GI50 [25] was 0.395 µM, the TGI [25] was 2.38 µM and the GI50 [26] was 1.8 µM. The TGI [26] was 3.65 µM, the GI50 [27] was 0.279 µM and the TGI [27] was 2.01 µM.
